# Assay results taken from patent US20240191187A1, “MEDIA AND METHODS FOR GROWING MAMMARY ORGANOIDS” (STEMCELL TECHNOLOGIES CANADA INC., priority 2021, published 2024).
# Entries after “also recorded” stand apart in the source; their conditions may differ.
# Tests used:
# [1] = tested on: human mammary epithelial cells; test: Human mammary organoid cell lineage balance by flow cytometry; conditions: for cell lineage balance, inhibitors of TGFβ signaling: ~10 μM SB431542, ~200-500 nM A77-01, ~5-25 RepSox; for cell lineage balance, ERBB receptor family ligands: ~10-50 ng/mL AREG, ~10-50 ng/mL EGF, ~50-100 ng/mL NRG1; for cell lineage balance across multiple experiments, ERBB ligands: normalized to control lacking ERBB modulators, mean of 2 experiments
# Protocol: (§4) Cryopreserved pellet A and pellet B were dissociated into a single cell suspension by treatment with 0.25% Trypsin-EDTA for 5 minutes at 37° C. (with intermittent trituration) and then centrifuged at (300 g for 5 minutes). The supernatant was discarded and the pellet was resuspended in a 100 μg/ml DNase solution for 1 minute at room temperature. The resulting cells were passed through a 37 μm strainer to obtain the single cell suspension.
# Each well received between 0.5-1 mL of any one of the various culture media described herein.
# The plated single cell suspension of mammary epithelial cells formed into organoids that were passaged approximately every 7-days, with 2-3 full medium changes during such 7-day period. To passage the organoids, the Matrigel domes were broken apart by pipetting in pre-warmed 0.25% Trypsin-EDTA, incubating at 37° C. for ˜ 5-15 minutes and pipetting again. The trypsinization reaction was inactivated by washing in an equal volume of Hanks Balanced Salt Solution supplemented with 2% FBS. Depending on the density and size of organoids a 1:2-1:5 split was performed, with the cells seeded as domes, as described above. Alternatively, cells would be strained through a 37 μm strainer to obtain the single cell suspension and seeded in Matrigel domes as described above.
# Organoids were formed in media comprising either BMP signaling activator, ˜50 ng/mL BMP2 or ˜50 ng/mL BMP4, and in media comprising either BMP signaling inhibitor, ˜25-200 ng/mL NOGGIN or ˜10-100 nM LDN193189. Just prior to the first passage, the formed organoids were dissociated and the cell lineage balance was analyzed by flow cytometry.
# Organoids were formed in media comprising either no ligand of an ERBB receptor family member, or comprising ˜10-50 ng/mL amphiregulin (AREG), ˜10-50 ng/mL epidermal growth factor (EGF), or ˜50-100 ng/mL heregulin/neuregulin 1 (NRG1). Just prior to the first passage, the formed organoids were dissociated and the cell lineage balance was analyzed by flow cytometry.
# Just prior to the first passage, the formed organoids were dissociated and the cell lineage balance was analyzed by flow cytometry.
# [2] = tested on: human mammary epithelial cells; test: Human mammary organoid formation, brightfield microscopy; assay type: cell-based; conditions: media comprising NOGGIN or LDN193189 alone vs both; successive passages
# Protocol: Fragments of human mammary epithelial cells were isolated from tissue samples obtained from academic collaborators, as follows. Resected tissue samples were minced in a petri dish using a scalpel to cut in a cross-hatched pattern. The minced tissue samples were placed in a dissociation flask in standard culture medium supplemented with BSA, insulin, collagenase and hyaluronidase. The flask was gently shaken overnight on an orbital shaker placed in a 37° C. tissue incubator. The following morning the floating layer of fat was removed by pipette, and the remaining liquid was transferred to a tube and briefly centrifuged at low rpm (˜80 g for 30 seconds). The pellet (A pellet) was set aside and the supernatant was further centrifuged for an incrementally longer period of time and at an incrementally higher rpm (˜200 g for 4 minutes). The pellet (B pellet) was set aside and the supernatant was further centrifuged for a still incrementally longer period of time and at an incrementally higher rpm (˜450 g for 5 minutes).
# Cryopreserved pellet A and pellet B were dissociated into a single cell suspension by treatment with 0.25% Trypsin-EDTA for 5 minutes at 37° C. (with intermittent trituration) and then centrifuged at (300 g for 5 minutes). The supernatant was discarded and the pellet was resuspended in a 100 μg/ml DNase solution for 1 minute at room temperature. […]
# [3] = tested on: estrogen receptor localization in human mammary organoids; test: ER localization in human mammary organoids after transient TGFβ signaling inhibitor exposure (confocal); assay type: cell-based; conditions: transient exposure after organoids have formed
# Protocol: (§1) In panel A) (human) and in panel B) (mouse) organoids were formed in respective organoid media of this disclosure, and were then transiently exposed to different inhibitors of TGFβ signaling. Organoids were imaged by confocal microscopy after staining for K8, K14, ER and the nuclear stain DAPI.
# (§2) Organoids were recovered from Matrigel by incubating in Corning Cell Recovery Solution for 1 hour with rocking on ice. Organoids were then fixed in 4% paraformaldehyde (PFA) at room temperature for 1 hour and stored in PBS at 4° C. After PFA fixation, antigen retrieval was performed by boiling the organoids in sodium citrate buffer for 20 minutes at 96° C. Organoids were permeabilized in a 0.5% Triton-X-100 solution in PBS overnight at room temperature. Samples were blocked by incubating overnight in a solution of 5% goat serum.
# (§3) Following fixation and permeabilization, the organoids were incubated sequentially in primary antibody and secondary antibody solutions (as summarized in the table below) overnight at room temperature. Samples were counterstained in a 2 μg/ml DAPI solution for 20 minutes and dehydrated through stepwise incubations in solutions with increasing methanol concentrations (50%, 80%, then 100% methanol). […]
# [4] = tested on: estrogen receptor localization in mouse mammary organoids; test: ER localization in mouse mammary organoids after transient TGFβ signaling inhibitor exposure (confocal); assay type: cell-based; conditions: transient exposure after organoids have formed
# Protocol: as §1, §2, §3
# [5] = tested on: human mammary epithelial cells; test: Human mammary organoids stained for K8/K14, confocal microscopy; assay type: cell-based; conditions: Day 17 organoids; 50 ng/mL NRG3, 100 ng/mL AMH, 50 ng/mL GM-CSF
# Protocol: as §2
# as §3, with “methanol). Organoids were embedded in a solution of 2:1 Benzyl Benzoate-Benzyl alcohol (BABB), transferred to Ibidi glass bottom chamber slides and imaged using a Leica SP8 confocal laser scanning microscope.” for “methanol).”
# The effects of modulating signaling through BMP were analyzed across multiple experiments in terms of total cell count among formed organoids (FIG. 9A) and the lineage balance of the cells among formed organoids (FIG. 9B). […]
# [6] = tested on: human mammary epithelial cells; test: Total cell count among formed human mammary organoids; assay type: cell-based; conditions: vs control with no modulation of ERBB signaling
# Protocol: as §4
# Each well received between 0.5-1 mL of any one of the various culture media described herein. […]
# The effects of modulating signaling through an ERBB receptor family member were analyzed across multiple experiments in terms of total cell count among formed organoids (FIG. 13A) and the lineage balance of the cells among formed organoids (FIG. 13B).
compound,measurement,setting,value
"Cc1cccc(-c2[nH]ncc2-c2ccnc3ccccc23)n1 [A77-01, reference compound]","cell lineage balance, inhibitors of TGFβ signaling",[1],reduce the proportion of stromal cells while either maintaining or improving the proportions of luminal cells
"C#Cc1cccc(Nc2ncnc3cc(OCCOC)c(OCCOC)cc23)c1 [Erlotinib, reference compound]","cell lineage balance, EGF receptor inhibition","[1]; ~100 nM Gefitinib and ~100 nM Erlotinib given together, two donor samples",negligible or no effect on cell lineage balance
"c1ccc2c(-c3cnn4cc(-c5ccc(N6CCNCC6)cc5)cnc34)ccnc2c1 [LDN193189, reference compound]","formation of luminal organoids, single vs dual BMP signaling inhibitor",[2],appeared sufficient to bias formation of luminal organoids
same,"cell lineage balance, BMP signaling modulators","[1]; just prior to first passage, ~50 ng/mL BMP2 or BMP4, ~25-200 ng/mL NOGGIN or ~10-100 nM LDN193189",decreased the number of basal cells while increasing the number of luminal cells
Cc1cccc(-c2[nH]ncc2-c2ccc3ncccc3n2)n1 [RepSox],"localization of estrogen receptor, human organoids",[3],promoted the localization of estrogen receptor within nuclei
same,"localization of estrogen receptor, mouse organoids",[4],promoted the localization of estrogen receptor within nuclei
same,"cell lineage balance, inhibitors of TGFβ signaling",[1],reduce the proportion of stromal cells while either maintaining or improving the proportions of luminal cells
NC(=O)c1ccc(-c2nc(-c3ccc4c(c3)OCO4)c(-c3ccccn3)[nH]2)cc1 [SB431542],"localization of estrogen receptor, human organoids",[3],promoted the localization of estrogen receptor within nuclei
same,"localization of estrogen receptor, mouse organoids",[4],promoted the localization of estrogen receptor within nuclei
same,"cell lineage balance, inhibitors of TGFβ signaling",[1],reduce the proportion of stromal cells while either maintaining or improving the proportions of luminal cells
Granulocyte-macrophage Colony Stimulating Factor [GM-CSF],lineage restriction of organoids formed (K8/K14 staining),[5],bias the culture of mammary epithelial cells to form basal-restricted organoids; also recorded: Basal-restricted organoids were formed
Neuregulin 3 [NRG3],lineage restriction of organoids formed (K8/K14 staining),[5],bias the culture of mammary epithelial cells to form luminal-restricted organoids; also recorded: Luminal-restricted organoids were formed
TGFβ1: ligand of a TGFβ receptor,"cell lineage balance, TGFβ receptor ligands","[1]; ~50 ng/mL, just prior to first passage","an overall negative impact on the percentage of luminal and basal cells, while greatly increasing the proportion of stromal cells"
epidermal growth factor [EGF],"total cell count among formed organoids, ERBB modulators",[6],highest mitogenic activity
same,"cell lineage balance, ERBB receptor family ligands",[1]; just prior to first passage,significantly reduce the number of luminal cells while significantly increasing the number of basal cells
same,"cell lineage balance across multiple experiments, ERBB ligands",[1],the greatest reduction in luminal cells and the greatest increase in basal cells
heregulin/neuregulin 1 [NRG1],"cell lineage balance, ERBB receptor family ligands",[1]; just prior to first passage,a minor or no effect on cell lineage balance
same,"cell lineage balance across multiple experiments, ERBB ligands",[1],a higher percentage of luminal cells and a reduction in the percentage of basal cells
